According to US9227966B2, “Antimicrobial agents” (Rutgers, The State University of New Jersey, priority 2010, dated 2016):

Test system: methicillin-Sensitive Staphylococcus aureus (MSSA)
Assay: Planktonic (free-living) antibacterial assay, broth microdilution MIC vs. MSSA
Format: cell-based
Conditions: minimal concentration at which bacterial growth is completely inhibited, 37° C., 24 to 48 hours, OD 600 nm
Method: Test C. Planktonic (Free-Living) Antibacterial Assay.
Planktonic antibacterial activity can be determined using a broth microdilution assay in which log-phase bacteria are grown at 37° C. in appropriate medium containing two-fold serial dilutions of a compound to yield a final concentration ranging from […]. For determination of minimal inhibitory concentration (MIC) values, bacterial growth is monitored after 24 to 48 hours by measuring optical density at 600 nm.
The minimal inhibitory concentration against methicillin-Sensitive Staphylococcus aureus (MSSA) for each of the following representative compounds of the invention was determined to be less than 32 μg/ml.

SMILES | MIC [µg/mL]
COc1cc2cc3c4cc(-c5ccccc5)c(OC)cc4cc[n+]3cc2cc1OC.[Cl-] [Example 35] | ≤ 32
COc1cc2cc(-c3cc(-c4ccccc4)cc(-c4ccccc4)c3)[n+](C)c(C)c2cc1OC.[I-] [Example 8] | ≤ 32
COc1cc2cc3c4cc(-c5ccc(-c6ccccc6)cc5)c(OC)c(OC)c4cc[n+]3c(C)c2cc1OC [Example 17] | ≤ 32
COc1cc2cc(-c3cccc(-c4ccccc4)c3)[n+](C)c(C)c2cc1OC.[I-] [Example 4] | ≤ 32
COc1cc2cc[n+]3cc4c(OC)c(OC)c(OC)cc4cc3c2cc1-c1ccc(-c2ccccc2)cc1.[Cl-] [Example 19] | ≤ 32
COc1cc2cc3c4cc(-c5ccc(C)cc5)c(OC)cc4cc[n+]3cc2cc1OC.[Cl-] [Example 31] | ≤ 32
COc1cc2cc3c4cc(-c5ccc(C)cc5)c(OC)cc4cc[n+]3c(C)c2cc1OC [Example 30] | ≤ 32
COc1cc2c(C)[n+]3ccc4c(OC)c(OC)ccc4c3cc2c(-c2ccc(-c3ccccc3)cc2)c1OC [Example 20] | ≤ 32
C[n+]1cc2ccccc2cc1-c1cc(-c2ccccc2)cc(-c2ccccc2)c1.[I-] [Example 6] | ≤ 32
COc1cc2cc3c4cc(-c5cccc(N(C)C)c5)c(OC)cc4cc[n+]3c(C)c2cc1OC [Example 27] | ≤ 32
COc1cc2c[n+]3ccc4c(OC)c(OC)ccc4c3cc2c(-c2ccc(-c3ccccc3)cc2)c1OC.[Cl-] [Example 21] | ≤ 32
COc1cc2cc(-c3cccc(-c4ccc(-c5ccccc5)cc4)c3)[n+](C)c(C)c2cc1OC.[I-] [Example 16] | ≤ 32
C[n+]1cc2ccccc2cc1-c1cccc(-c2ccccc2)c1.[I-] [Example 2] | ≤ 32
